Test results reported in patent US20100028395A1, “COMPOSITIONS CONTAINING N-ACETYLGLUCOSAMINE FOR USE IN DERMO-COSMETOLOGY AND AESTHETIC MEDICINE” (ROTTAPHARM S.P.A., priority 2007, published 2010).

How the values were obtained:
[1] = exogenous hyaluronic acid, non cross-linked; cited from earlier work
[2] = system: mouse skin fibroblasts; conditions: addition of HA to primary cultures; cited from earlier work
[3] = system: extracellular matrix metalloproteases; conditions: HA 1 mg/ml; cited from earlier work
[4] = system: Human fibroblasts, Detroit 551 ATCC CCL III; assay: Stimulation of HA synthesis in human fibroblast cultures (EIA HA assay); type: cell-based; conditions: 48 h
Description: The test has been conducted in two stages, i.e.: • stage A: in which the stimulation of HA expression by COMBI has been evaluated while maintaining the concentration constant and varying the reciprocal quantities of its components. The concentration used has been selected so as to enable comparison with the results derived from stage B; • stage B: in which the effect of CA on HA expression has been evaluated by varying its concentration and in comparison with doses consistent with its components. […] Human fibroblasts have been grown in suitable growth medium (Eagle's minimal essential medium) supplemented with 10% foetal calf serum (FCS), 1 mM sodium pyruvate, 2 mM glutamine, non-essential aminoacids and 50 μg/ml glutamycin. […] After 48 hours, the supernatant has been removed and used for the determination of the parameters of interest. The test has been conducted in duplicate and untreated cell cultures have been used as controls. HA has been assayed (dosed) by means of an immuno-enzymatic test using a commercially available kit (EIA, Corgenix). De novo HA synthesis has been evaluated in the culture medium following treatment with the test substances, according to the protocol provided with the test, and against the calibration curve obtained using the HA standard contained in the kit. […] • evaluation of the effects of the substances tested, at the various concentrations, on fibroblast cultures has been expressed as the absolute and percent increase or decrease of the HA expression, with respect to the corresponding control culture, after 48 hours of incubation. The percentage difference increase or decrease of the effects exerted by CA and NAG, at corresponding concentrations, have then been calculated, with evaluation of their potential significance by means of the Student's “t” test.

[5] = system: Human fibroblasts, Detroit 551 ATCC CCL III; assay: Stimulation of collagen synthesis in human fibroblast cultures (Sircol assay); type: cell-based; conditions: 24 h
Description: The scope of the test has been the evaluation and the comparison of the potential stimulation exerted by the test substances on the expression of collagen and elastin in “in vitro” cultures of skin-derived cells, such as fibroblasts. The test in question, even though conducted “in vitro”, can be considered to be predictive of the effects of use of the same substances “in vivo”. […] The samples have been dissolved directly in the culture medium. Each sample has been tested in duplicate and the experiments have been repeated twice. The parameters of interest have been determined after 24 hours on separate plates. Untreated cell cultures have been used as controls. A commercially available kit (Sircol™, biodye science) which uses the capacity of the stain Sirius Red to interact with the basic side chains of the aminoacids present in collagen itself, has been used for collagen assays. De novo collagen synthesis has been evaluated in the culture medium following treatment with the test substances, following the protocol provided with the kit, and by using the calibration curve obtained employing the collagen standard contained in turn in the kit. Evaluation of the effects of the substances tested, at the various concentrations, on fibroblast cultures, has been expressed as the absolute and percent increase or decrease of collagen and elastin expression, with respect to the corresponding control culture, after 24 hours of incubation. The percentage difference increase or decrease of the effects exerted by CA and NAG, at corresponding concentrations, have then been calculated, with consequent evaluation of their potential statistical significance by means of the test Student “t” test.

[6] = system: Human fibroblasts, Detroit 551 ATCC CCL III; assay: Stimulation of elastin synthesis in human fibroblast cultures (Fastin assay); type: cell-based; conditions: 24 h
Description: The scope of the test has been the evaluation and the comparison of the potential stimulation exerted by the test substances on the expression of collagen and elastin in “in vitro” cultures of skin-derived cells, such as fibroblasts. The test in question, even though conducted “in vitro”, can be considered to be predictive of the effects of use of the same substances “in vivo”.
Human fibroblasts, Detroit 551 ATCC CCL III from LGC Promochem (Milan, Italy) have been used.
The substances and concentrations tested have been the same as those already described for stage B of the test on the stimulation of HA expression, i.e.: • CA: 0.66, 1.32, 1.98, 2.64 and 3.3 mg/ml • NAG: 0.5, 1.0, 1.5, 2.0 and 2.5 mg/ml • ASS: 0.16, 0.32, 0.48, 0.64 and 0.80 mg/ml
Cells have been plated out in 96 well plates, 2500 cells/well for 24 hours in cell growth medium ([…], DMEM)+10% foetal calf serum (FCS). Fresh culture medium, enriched with just 5% FCS and containing the substances to be tested, so as to reach the final concentrations desired, has then been added. The samples have been dissolved directly in the culture medium. Each sample has been tested in duplicate and the experiments have been repeated twice. The parameters of interest have been determined after 24 hours on separate plates. Untreated cell cultures have been used as controls.
Elastin has been assayed using a commercially available test (Fastin™, biodye science). The assay is based on the interaction of 5,10,15,20-tetraphenyl-21,23-porphyrin with elastin molecules.
De novo elastin synthesis has been evaluated in the culture medium following treatment with the test substances, following the protocol provided with the test, and by using the calibration curve obtained employing the elastin standard contained in the kit itself.
Evaluation of the effects of the substances tested, at the various concentrations, on fibroblast cultures, has been expressed as the absolute and percent increase or decrease of collagen and elastin expression, with respect to the corresponding control culture, after 24 hours of incubation.
The percentage difference increase or decrease of the effects exerted by CA and NAG, at corresponding concentrations, have then been calculated, with consequent evaluation of their potential statistical significance by means of the test Student “t” test.

[7] = system: Human fibroblasts, Detroit 551 ATCC CCL III; assay: MTT cytotoxicity test on fibroblasts; type: cell-based; conditions: positive control, 0.5 mg/ml SDS
Description: (§1) For this purpose the cell viability test using MTT (3-[4,5-dimethylthiazol-2-yl]-2,5-diphenyl tetrazolium bromide) [Mossman 1993] a colourimetric reagent, by means of which it is possible to distinguish between living, damaged or dead cells, being thus predictive of the safety of use of test substances, even “in vivo”, has been selected.
(§2) The following have been used: • human fibroblasts, Detroit 551 ATCC CCL III from LGC Promochem (Milan, Italy); • primary culture of human keratinocytes (HEKA), Cascade Biologics, cat.-005-5c.
(§3) In the study in question, CA has been previously dissolved and brought into contact with the selected cell cultures in such a manner as to directly reach the desired concentrations, i.e.: […]
(§4) As already mentioned, the key reagent is MTT, a yellow-coloured substance in aqueous solution which, when acted-on by the mitochondrial dehydrogenases present in viable cells, is transformed into purple crystals, insoluble in water, but soluble in acidified isopropanol. The absorbance of the resulting purple solution at […] is used as an indicator of the level of cytotoxicity of the substances under test.
(§5) In operational terms, the key reagent is prepared by adding 15 mg of MTT to 30 ml of culture medium. […] The plates are shaken for 20-30 minutes until a homogenous solution is formed, the absorbance of which is then read at […] with a background reading at 670 nm. […]

[8] = system: primary culture of human keratinocytes (HEKA); assay: MTT cytotoxicity test on keratinocytes; type: cell-based; conditions: positive control, 0.5 mg/ml SDS
Description: as §1, §2, §3, §4, §5

Compound: Hyaluronic acid [HA]
- half-life in the skin [1]: less than 24 hours
- effect on DNA synthesis [2]: causes transient DNA synthesis
- expression of extracellular matrix metalloproteases [3]: clear increase

Compound: anhydrous sodium sulphate [ASS]
- HA (%) (Diff. from baseline) ([4]; ASS 0.16 mg/ml): +6.07%
- HA(ng/well) (Diff. from baseline) ([4]; ASS 0.16 mg/ml): 35 ng/well
- HA (%) (Diff. from baseline) ([4]; ASS 0.32 mg/ml): +7.99%
- HA(ng/well) (Diff. from baseline) ([4]; ASS 0.32 mg/ml): 46 ng/well
- HA (%) (Diff. from baseline) ([4]; ASS 0.48 mg/ml): +9.38%
- HA(ng/well) (Diff. from baseline) ([4]; ASS 0.48 mg/ml): 54 ng/well
- HA (%) (Diff. from baseline) ([4]; ASS 0.64 mg/ml): −25.87%
- HA(ng/well) (Diff. from baseline) ([4]; ASS 0.64 mg/ml): −149 ng/well
- HA (%) (Diff. from baseline) ([4]; ASS 0.80 mg/ml): +1.91%
- HA(ng/well) (Diff. from baseline) ([4]; ASS 0.80 mg/ml): 11 ng/well
- effect on HA expression (in words) ([4]; ASS alone 0.16-0.80 mg/ml): exerts no stimulation nor inhibition
- Collagen (%) (Diff. from baseline) ([5]; ASS 0.16 mg/ml): −8.45%
- Collagen(μg/ml) (Diff. from baseline) ([5]; ASS 0.16 mg/ml): -0.43 µg/mL
- Collagen (%) (Diff. from baseline) ([5]; ASS 0.32 mg/ml): +3.93%
- Collagen(μg/ml) (Diff. from baseline) ([5]; ASS 0.32 mg/ml): +0.20 μg/ml
- Collagen (%) (Diff. from baseline) ([5]; ASS 0.48 mg/ml): +1.77%
- Collagen(μg/ml) (Diff. from baseline) ([5]; ASS 0.48 mg/ml): +0.09 μg/ml
- Collagen (%) (Diff. from baseline) ([5]; ASS 0.64 mg/ml): +9.03%
- Collagen(μg/ml) (Diff. from baseline) ([5]; ASS 0.64 mg/ml): +0.46 μg/ml
- Collagen (%) (Diff. from baseline) ([5]; ASS 0.80 mg/ml): −3.34%
- Collagen(μg/ml) (Diff. from baseline) ([5]; ASS 0.80 mg/ml): -0.17 µg/mL
- effect on collagen expression (in words) ([5]; ASS alone 0.16-0.80 mg/ml): exerts no type of stimulation or inhibition
- Elastin (%) (Diff. from baseline) ([6]; ASS 0.16 mg/ml): −2.33%
- Elastin (μg/ml) (Diff. from baseline) ([6]; ASS 0.16 mg/ml): -0.11 µg/mL
- Elastin (μg/ml) (Mean ± st. dev.) ([6]; ASS 0.16 mg/ml): 4.61 ± 0.41 µg/mL
- Elastin (%) (Diff. from baseline) ([6]; ASS 0.32 mg/ml): +1.98%
- Elastin (μg/ml) (Diff. from baseline) ([6]; ASS 0.32 mg/ml): +0.07 μg/ml
- Elastin (μg/ml) (Mean ± st. dev.) ([6]; ASS 0.32 mg/ml): 4.79 ± 0.44 µg/mL
- Elastin (%) (Diff. from baseline) ([6]; ASS 0.48 mg/ml): +9.75%
- Elastin (μg/ml) (Diff. from baseline) ([6]; ASS 0.48 mg/ml): +0.46 μg/ml
- Elastin (μg/ml) (Mean ± st. dev.) ([6]; ASS 0.48 mg/ml): 5.18 ± 0.36 µg/mL
- Elastin (%) (Diff. from baseline) ([6]; ASS 0.64 mg/ml): −3.81%
- Elastin (μg/ml) (Diff. from baseline) ([6]; ASS 0.64 mg/ml): -0.18 µg/mL
- Elastin (μg/ml) (Mean ± st. dev.) ([6]; ASS 0.64 mg/ml): 4.54 ± 0.47 µg/mL
- Elastin (%) (Diff. from baseline) ([6]; ASS 0.80 mg/ml): −3.39%
- Elastin (μg/ml) (Diff. from baseline) ([6]; ASS 0.80 mg/ml): +0.16 μg/ml
- Elastin (μg/ml) (Mean ± st. dev.) ([6]; ASS 0.80 mg/ml): 4.83 ± 0.30 µg/mL
- effect on elastin expression (in words) ([6]; ASS alone 0.16-0.80 mg/ml): incapable of exerting any effect, either stimulatory or inhibitory

Compound: CCCCCCCCCCCCOS(=O)(=O)[O-].[Na+] [SDS, sodium dodecylsulphate]
- cell mortality [7]: 96.05%
- mortality of the keratinocyte culture [8]: 94.28%
